In patent publication US20140357688A1, “METHOD FOR INHIBITING EZH2 EXPRESSION IN BREAST CANCER CELLS” (Yung Shin Pharm. Ind. Co., Ltd., priority 2013, published 2014):
Peptide text beside a SMILES is read from it. * marks the point of attachment. Cbz = O=C(OCc1ccccc1)*

Assays:
Type in all cases: cell-based, human
[1] = test system: EZH2; assay: Western blot of EZH2 protein expression in MDA-MB-468 cells; conditions: for effect of inhibitor on YC-1-induced EZH2 inhibition: inhibitor pretreatment, then 3 μM YC-1 for 6 h
Description: Cells were harvested and performed with western blotting analysis. […] The levels of protein expression were quantitated and shown under blots. (C) Cells were transfected with EZH2 shRNA for 0, 1, 2, 3, and 4 days and collected for determination of cell viability (left) and protein expression (right). (D)(E) After 4 days of EZH2 knockdown, cells were incubated with 3 μM YC-1 for 4 h and detected cell viability (D) and protein contents (E). (F) Tumor specimens were isolated and protein was extracted for western blot analysis.
Cells were lysed in PBS containing proteinase inhibitor and phosphatase inhibitors and sonication. Protein concentration was measured using the Bio-Rad protein assay kit (Bio-Rad Laboratories, Hercules, Calif., USA). Lysate protein was separated by electrophoresis of SDS-PAGE and transferred to Immobilon P membrane (EMD Millipore). The membranes were incubated with appropriate primary antibodies and horseradish peroxidase-conjugated secondary antibodies (EMD Millipore). The signaling was visualized using Chemiluminescence substrate kit (EMD Millipore) and collected by the Luminesence image analyzer, LAS4000 (Fuji Photo Film Co., Tokyo, Japan). The band intensities were analyzed and quantified by the Multi Gauge software (Fuji Photo Film).

[2] = test system: EZH2; assay: EZH2 ubiquitination assay; conditions: inhibitor pretreatment, then 3 μM YC-1
Description: (A) Cells were pretreated with cyclohexamide (30 μM) for 1 h and followed by induction with vehicle (DMSO) or YC-1 (3 μM) for indicated time. Cells were harvested for detection of protein expression. (B)(C) Cells were incubated with 3 μM YC-1 for 6 h in the presence of vehicle, 3 μM MG-132 or 30 μM NH4Cl. Cells were harvested for detection of protein expression (B) or cell viability assay (C). The levels of protein expression were quantitated and shown under blots. (D) After treatment of 3 μM YC-1 for indicated time, cells were harvested and lysed for immunoprecipitation and western blot analysis described in Materials and Methods.
Cells were lysed with MLB buffer (25 mM HEPES, pH 7.5, 150 mM NaCl, 1% Igepal CA-630, 10 mM MgCl2, 1 mM EDTA, 2% glycerol, 1 mM Na3VO4, 1 mM NaF, 1 mM PMSF, 10 μg/ml of leupeptin, aprotinin, and pepstatin A). After sonication, cell lysates were centrifugated at 12,000×g for 10 min at 4° C. Supernatants were incubated with anti-EZH2 antibody (BD Biosciences) and protein A Sepharose beads (GE Health Care) overnight at 4° C. After washing with MLB buffer, precipitated proteins were boiled in 1× Laemmli sample buffer and then separated with SDS-PAGE. The ubiquitination levels of EZH2 were recognized by using anti-Ubiquitn monoclonal antibody.

[3] = test system: c-Cbl; assay: Western blot of c-Cbl phosphorylation and expression; conditions: pretreatment 1 h, then 3 μM YC-1 for 6 h
Description: (A) c-Cbl knockdown MDA-MB-468 cells were treated with 3 μM YC-1 for 4 h. Cell were harvested for detection of protein expression. (B) Cells were treated with 3 μM YC-1 for indicated time. Cells were collected and c-Cbl phosphorylation was detected. […] (D) Cells were pretreated with MG-132 and followed by 3 μM YC-1 induction for indicated time. Cells were harvested and lysed for immunoprecipitation assay. The association between c-Cbl and EZH2 were determined by western blotting analysis and probed with anti-EZH2 or anti-c-Cbl antibody. Membranes were stripped and reprobed with anti-c-Cbl or anti-EZH2 antibody to check the input. […] Then cells were collected and lysate protein was subjected for the detection of the c-Cbl-EZH2 complexes. Cells were lysed in PBS containing proteinase inhibitor and phosphatase inhibitors and sonication. Protein concentration was measured using the Bio-Rad protein assay kit (Bio-Rad Laboratories, Hercules, Calif., USA). Lysate protein was separated by electrophoresis of SDS-PAGE and transferred to Immobilon P membrane (EMD Millipore). The membranes were incubated with appropriate primary antibodies and horseradish peroxidase-conjugated secondary antibodies (EMD Millipore). The signaling was visualized using Chemiluminescence substrate kit (EMD Millipore) and collected by the Luminesence image analyzer, LAS4000 (Fuji Photo Film Co., Tokyo, Japan). The band intensities were analyzed and quantified by the Multi Gauge software (Fuji Photo Film).

[4] = test system: MDA-MB-468; assay: MTT cell viability assay; conditions: for effect of inhibitor on YC-1-induced inhibition of cell viability: inhibitor pretreatment, then 3 μM YC-1 for 6 h
Description: (A) Cells were treated with indicated concentration of YC-1 for 6, 24, and 48 h. Cell viability was determined by MTT method. (B) MDA-MB-468 cells were treated with 3 μM YC-1 for 0, 6, and 12 h, and then stained with fluorescence diacetate (FDA) and propidium iodide (PI). Cell morphology was assessed by fluorescence microscopy with magnification ×20 (upper 3 rows) or ×40 (lowest row). (C) MDA-MB-468 cells were treated with 3 μM YC-1 for 24 h, cells were lysed and subjected to western blot analysis described in Materials and Methods. β-actin is a loading control. Blots were representative of results from three independent experiments. (D) Cells were treated with vehicle (DMSO, as control) or 3 μM YC-1 for 6 h. The cell cycles were analyzed by flow cytometry. (E) Cells were treated with indicated concentration of YC-1 and then performed with clonogenic assay.
Human breast cancer cells, MDA-MB-468, MDA-MB-157, MDA-MB-231, MDA-MB-453, and Hs578T, and immortalized mammary epithelial cell lines, 184A1 and MCF-10A, were obtained from American Type Culture Collection (Manassas, Va., USA). MDA-MB-468, MDA-MB-157, MDA-MB-231, and MDA-MB-453 were cultured in DMEM/F12 medium supplemented with 10% FBS, 100 U/ml penicillin, and 100 μg/ml streptomycin. Hs578T was cultured in RPMI 1640 medium containing 10% FBS, 2 mM L-glutamine, 100 U/ml penicillin, and 100 μg/ml streptomycin. 184A1 and MCF-10A were cultured in DMEM/F12 medium supplemented with 5% horse serum, 0.5 μg/ml hydrocortisone, 10 μg/ml insulin, 20 ng/ml epidermal growth factor, 0.1 μg/ml cholera enterotoxin, 2 mM L-glutamine, 100 U/ml penicillin, and 100 μg/ml streptomycin. All cells were maintained in a humidified incubator containing 5% CO2. For hypoxia treatment, cells were incubated in a chamber flushed with 1% 02, 5% CO2, and 94% N2 at 37° C.
Cell viability was measured by 3-(4,5-Dimethyl-2-thiazolyl)2,5-diphenyl-2H-tetrazolium bromide (MTT) assay.

[5] = test system: EZH2-c-Cbl-ERK; assay: Co-immunoprecipitation of c-Cbl and EZH2; conditions: PD98059 10 μM with MG-132, then 2 h 3 μM YC-1
Description: (A) c-Cbl knockdown MDA-MB-468 cells were treated with 3 μM YC-1 for 4 h. Cell were harvested for detection of protein expression. (B) Cells were treated with 3 μM YC-1 for indicated time. Cells were collected and c-Cbl phosphorylation was detected. (C) Cells were pretreated with MG-132 (3 μM) or NH4Cl (30 μM) for 1 h followed by 3 μM YC-1 induction for 6 h. (D) Cells were pretreated with MG-132 and followed by 3 μM YC-1 induction for indicated time. Cells were harvested and lysed for immunoprecipitation assay. The association between c-Cbl and EZH2 were determined by western blotting analysis and probed with anti-EZH2 or anti-c-Cbl antibody. Membranes were stripped and reprobed with anti-c-Cbl or anti-EZH2 antibody to check the input. (E) Cells were preincubated with or without PD98059 (10 μM) in the presence of MG-132 for 1 h prior to 2 h-treatment of 3 μM YC-1. Then cells were collected and lysate protein was subjected for the detection of the c-Cbl-EZH2 complexes.
Cells were lysed with RIPA buffer (50 mM Tris-C1, pH 7.5, 1% Igepal CA-630, 150 mM NaCl, 1 mM EDTA, 1 mM Na3VO4, 1 mM NaF, 1 mM PMSF, 10 μg/ml of leupeptin, aprotinin, and pepstatin A) for 30 min at 4° C. One milligram of cell lysate was incubated with anti-EZH2 or anti-c-Cbl antibody and protein A-Sepharose beads, then gently rotated at 4° C. overnight. […]

## CC(C)=CCC/C(C)=C/CC/C(C)=C/CSc1ccccc1C(=O)O [farnyesyl thiosalicylic acid]
[1]
  effect of inhibitor on YC-1-induced EZH2 inhibition: had no effect

## COc1cc2ncnc(Nc3cccc(Cl)c3)c2cc1OC [AG1478]
[2]
  effect of inhibitor on YC-1-induced EZH2 ubiquitination: not
[1]
  effect of inhibitor on YC-1-induced EZH2 inhibition: not affected

## CC(C)C[C@@H](C=O)NC(=O)[C@H](CC(C)C)NC(=O)[C@H](CC(C)C)NC(=O)OCc1ccccc1 [MG-132] (Cbz-Leu-Leu-Leu-aldehyde)
[3]
  effect of inhibitor on YC-1-induced inhibition of c-Cbl: could be reversed
[4]
  effect of inhibitor on YC-1-induced inhibition of cell viability: reversed the YC-1-induced inhibition of cell viability
[1]
  effect of inhibitor on YC-1-induced EZH2 inhibition: significantly prevented EZH2 degradation

## O=c1c(-c2ccc(O)cc2)coc2cc(O)cc(O)c12 [genistein]
[2]
  effect of inhibitor on YC-1-induced EZH2 ubiquitination: significantly suppressed
[4]
  effect of inhibitor on YC-1-induced inhibition of cell viability: attenuated
[1]
  effect of inhibitor on YC-1-induced EZH2 inhibition: attenuated

## Cl.N [NH4Cl, reference compound]
[3]
  effect of inhibitor on YC-1-induced inhibition of c-Cbl: not
[1]
  effect of inhibitor on YC-1-induced EZH2 inhibition: not

## COC(=O)[C@@]1(OC)C[C@H]2O[C@]1(C)n1c3ccccc3c3c4c(c5c6ccccc6n2c5c31)C(=O)N(C)C4 [KT5823]
[4]
  effect of inhibitor on YC-1-induced inhibition of cell viability: failed to have effects
[1]
  effect of inhibitor on YC-1-induced EZH2 inhibition: failed to have effects

## CC[C@H](CO)Nc1nc(NCc2ccccc2)c2ncn(C(C)C)c2n1 [roscovitine]
[4]
  effect of inhibitor on YC-1-induced inhibition of cell viability: failed to modulate
[1]
  effect of inhibitor on YC-1-induced EZH2 inhibition: failed to modulate

## Nc1nccc2c1ncn2[C@@H]1C=C(CO)[C@@H](O)[C@H]1O [DZNep, 3-deazaneplanocin A]
[4]; DZNep, 24 h, ten folds of concentration higher than YC-1
  activation of apoptosis / cell viability: failed to inhibit EZH2 and activate apoptosis
[1]; DZNep 3, 10, 30 μM, 24 h, ten folds of concentration higher than YC-1
  EZH2 inhibition: failed to inhibit EZH2

## O=c1onc2cnc3ccccc3n12 [ODQ]
[4]
  effect of inhibitor on YC-1-induced inhibition of cell viability: failed to have effects
[1]
  effect of inhibitor on YC-1-induced EZH2 inhibition: failed to have effects

## COc1cccc(-c2cc(=O)c3ccccc3o2)c1N [PD98059]
[2]
  effect of inhibitor on YC-1-induced EZH2 ubiquitination: could be blocked
[4]
  effect of inhibitor on YC-1-induced inhibition of cell viability: almost completely abolished
[5]
  effect of inhibitor on EZH2-c-Cbl-ERK complex: could be disrupted
[1]
  effect of inhibitor on YC-1-induced EZH2 inhibition: almost completely abolished

## CCCC[C@@H](C)/C=C(C)/C=C(\C)C(=O)NC1=C[C@@](O)(/C=C/C=C/C=C/C(=O)NC2=C(O)CCC2=O)[C@@H]2O[C@@H]2C1=O [manumycin A]
[1]
  effect of inhibitor on YC-1-induced EZH2 inhibition: failed to influent

## COc1cc2ncnc(Nc3ccc(Oc4ccccc4)cc3)c2cc1OC [SrcI]
[2]
  effect of inhibitor on YC-1-induced EZH2 ubiquitination: significantly suppressed
[4]
  effect of inhibitor on YC-1-induced inhibition of cell viability: attenuated
[1]
  effect of inhibitor on YC-1-induced EZH2 inhibition: attenuated

## CNC(=O)c1cc(Oc2ccc(NC(=O)Nc3ccc(Cl)c(C(F)(F)F)c3)cc2)ccn1 [Bay-43-9006]
[2]
  effect of inhibitor on YC-1-induced EZH2 ubiquitination: significantly suppressed
[4]
  effect of inhibitor on YC-1-induced inhibition of cell viability: attenuated
[1]
  effect of inhibitor on YC-1-induced EZH2 inhibition: attenuated

## O=c1onc2n1-c1cc(Br)ccc1OC2 [NS2028]
[4]
  effect of inhibitor on YC-1-induced inhibition of cell viability: failed to have effects
[1]
  effect of inhibitor on YC-1-induced EZH2 inhibition: failed to have effects
